Source: US6593365B1, “Diflunisal esters and related compounds” (The University of Queensland, priority 1997, dated 2003)
Values joined by “and” are separate entries in the source; they are usually repeats but may differ in a detail not shown here. Equal entries are not always repeated. Where two headings read alike, the source gives them in different places.

Key:
[1] = Intrinsic (maximum) solubility in water at pH 1.5; assay type: physicochemical; conditions: 25 °C, pH 1.5, simulated gastric fluid
Procedure: The pH conditions were chosen to ensure that the solubility of the unionised species was estimated. […] Lea & Febiger/Philadelphia. […] […] The solvent (9.9 mL) was then added to the test tube. […] The test tube was sonicated for 15 minutes and centrifuged for 10 minutes (3000 g at 25° C.). An aliquot was filtered (Minisart 0.45 μm filter, Satorius) and diluted with HPLC mobile phase, then assayed. The tube was stored carefully in a 25° C. water bath after sampling and the remaining suspension was again sonicated and the process repeated 7 times at four hourly intervals. In these assays, standard curves were prepared by directly dissolving the esters in mobile phase. Concentrations for standard curves ranged from 1-50 μg/mL for all compounds. Furthermore, a manual injector (Waters Model U6K) was used (20 μL sample loop) which ensured that 20 μL was consistently injected onto the column and precluded the need for an internal standard.

[2] = In vitro non-enzymatic hydrolysis in Krebs-Henseleit buffer; assay type: physicochemical; conditions: for Hydrolysis rate constant (k): pH 7.4, 25° C., n=5; for half-life: pH 7.4
Procedure: These experiments were carried out both in Krebs-Henseleit buffer containing either no protein or 2% w/v BSA (bovine serum albumin, fraction V, Sigma) at pH 7.4 and 25±1° C.
Solutions of the derivatives in Krebs buffer (10 mL) was prepared in siliconised glass tubes. Each solution was sonicated for 5 minutes and centrifuged for 5 minutes (3000 g) at 25° C. to ensure maximum dissolution and to sediment any undissolved precipitate. About 7.5 mL of the supernatant was then transferred to a clean siliconised test tube and a 100 μL aliquot was removed and assayed. […] The rate of non-enzymatic hydrolysis (k) for each derivative was then estimated using the following equation: […]
where C1 is the concentration of the ester at any time (t), and C0 is the concentration of the ester at time zero. The half-life (t½) was determined using the formula: […]

[3] = molecular target: T1, BSA (bovine serum albumin) (Bos taurus, UniProt P02769); experiment: Protein binding by ultrafiltration in 2% BSA Krebs buffer; assay type: in vitro ADME; conditions: 2% BSA Krebs-Henseleit buffer pH 7.4, 37° C.; slope of Scatchard plot
T1 construct: BSA (bovine serum albumin, fraction V, Sigma); purchased Sigma; host or cells: bovine serum (fraction V)
Procedure: These experiments were carried out in Krebs-Henseleit buffer containing 2% w/v BSA (pH 7.4) and incubated at 37° C. for 30 minutes.
A known concentration of the ethanolic (≲1%) aspirin analogue or diflunisal ester stock solution was added to the 2% BSA Krebs solution to make final concentrations of 125 μM, 250 μM and 500 μM.
The unbound fraction (fu) of parent drug and its hydrolysis product were investigated using ultra-filtration: A 1.0 mL aliquot sample (in triplicate) was placed in a ultrafiltration tube (MPS-1, micro-partition system, Amicon) and centrifuged at 3000 g for 10 minutes. The ultra-filtrate was then assayed for parent drug and its hydrolysis product by HPLC.
To eliminate possible errors caused by hydrolysis, identical samples were placed in normal tubes and subjected to the same procedure. This control group (also in triplicate) was used to adjust for the percentage of hydrolysis in the ultra-filtrate under the experimental conditions.
The fu was determined as the ratio of the free concentration to total concentration of solutes. The binding constant (K) was determined from the slope of a Scatchard plot using following equation:
[Db]/[D]=−K[Db]vK[Pt] (3)
where [Db] is the concentration of bound drug, [D] is the concentration of drug, [Pt] is the concentration of total protein, and v is the number of independent binding sites available. This equation is plotted as the ratio [Db]/[D] versus [Db] and in this way the binding constant (K) is determined from the slope while vK[Pt] is determined from the intercept (Martin, 1983).

[4] = tested on: human platelet rich plasma; experiment: Platelet aggregation induced by arachidonic acid; assay type: cell-based; conditions: compound 600 µM, 37° C., arachidonic acid 200 µM
Procedure: Platelet aggregation studies were carried out using a single channel Lumiaggregometer (Chrono-Log Company, Haverton, Pa.) at 37° C. using human platelet-rich and platelet-poor plasma. Platelet-rich plasma (PRP) with a platelet concentration of […] (measured with a Coulter counter) was prepared by centrifuging 3.8% citrated […] (1:9) at 1,500 rpm using a (Beckman) benchtop centrifuge at room temperature for 15 minutes. Platelet-poor plasma (PPP) was prepared by further centrifuging residual blood from platelet-rich plasma at 3,000 rpm for 30 minutes. Platelet-poor plasma was also confirmed b y Coulter counting for platelet content.
Platelet aggregation studies were preceded by pipetting 0.4 mL platelet-rich plasma into a stirred aggregometer tube and calibrate to 90% of recorder. Platelet-poor plasma was set to calibrate at 10% of recorder. Platelet aggregation was initiated by the addition of a arachidonic acid (Sigma) or ADP (Sigma).
10 mM solutions of each compound (TABLE 6) were prepared in 1 mL of normal saline solution (containing 4% BSA) before use. An aliquot (400 μL) of platelet-rich plasma was pipetted into a stirred aggregometer tube at 37° C. and 30 μL of test sample added simultaneously. This mixture was preincubated for varying period (3 to 45 minutes), then arachidonic acid (AA) was added (final conc.=200 μM) to initiate platelet aggregation. If no aggregation occurred, 20 μM ADP was added to confirm the vitality of the platelets (if the platelets are vital, ADP will induce this AA-test sample-plasma mixture to aggregate). This procedure is necessary to investigate whether the non-aggregation phenomenon is due to drug inhibition or simply due to inviable platelets (unable to respond to AA). The degree of aggregation was measure by calculating the area under the turbidimetric response curve (AUC).

T1 sequence (P02769 25-607): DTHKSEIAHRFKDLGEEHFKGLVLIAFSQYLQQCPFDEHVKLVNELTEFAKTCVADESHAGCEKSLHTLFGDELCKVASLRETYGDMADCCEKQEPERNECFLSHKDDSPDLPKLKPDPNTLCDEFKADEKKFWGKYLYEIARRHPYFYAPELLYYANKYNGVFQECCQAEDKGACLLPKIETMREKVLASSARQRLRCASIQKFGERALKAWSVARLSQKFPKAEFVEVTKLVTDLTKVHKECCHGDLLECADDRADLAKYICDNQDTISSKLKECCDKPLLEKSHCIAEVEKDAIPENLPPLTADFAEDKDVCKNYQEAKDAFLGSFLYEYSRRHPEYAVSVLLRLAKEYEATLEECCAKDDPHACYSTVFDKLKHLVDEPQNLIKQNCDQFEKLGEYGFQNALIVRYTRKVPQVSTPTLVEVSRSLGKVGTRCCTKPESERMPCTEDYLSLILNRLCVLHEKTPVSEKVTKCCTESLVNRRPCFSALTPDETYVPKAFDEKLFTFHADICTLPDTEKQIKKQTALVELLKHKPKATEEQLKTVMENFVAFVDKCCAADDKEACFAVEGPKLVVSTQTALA

Structure (SMILES): CCCCCCCC(=O)Oc1ccccc1C(=O)O [Compound C8SA, n-octanoylsalicylic acid]
- solubility [1]: 2 µg/mL and 8 µM
- Hydrolysis rate constant (k) ([2]; Krebs-Henseleit buffer 0% BSA, U = Undetectable): 0.0051 ± 0.0031 hour^1
- Hydrolysis rate constant (k) ([2]; Krebs-Henseleit buffer 2% BSA): 0.0010 ± 0.0004 hour^1
- half-life ([2]; Krebs-Henseleit buffer with 2% w/v BSA, 2% BSA Krebs buffer, read-out: Half-life (converted)): ~30 days
- half-life ([2]; bovine, Krebs-Henseleit buffer with 2% w/v BSA, read-out: Half life (t1/2) (converted)): 28.9 days
- half-life ([2]; protein-free Krebs-Henseleit buffer, Krebs-Henseleit buffer 0% BSA, first half life, t1/2=0.693/k, U = Undetectable, read-out: Half life (t1/2) (converted)): 5.66 days
- Protein binding constant (K) [3]: 13978 L/mol
- Platelet Aggregation (% of control) ([4]; preincubation 3 minutes): 95.4 ± 2.1 % of control
- Platelet Aggregation (% of control) ([4]; preincubation 5 minutes): 92.4 ± 0.1 % of control
- Platelet Aggregation (% of control) ([4]; preincubation 8 minutes): 87.3 ± 3.3 % of control
- Platelet Aggregation (% of control) ([4]; preincubation 10 minutes): 67.5 ± 2.7 % of control
- Platelet Aggregation (% of control) ([4]; preincubation 12 minutes): 27.3 ± 0.2 % of control
- Platelet Aggregation (% of control) ([4]; preincubation 15 minutes): 0 % of control
- Platelet Aggregation (% of control) ([4]; preincubation 20 minutes): 0 % of control
- Platelet Aggregation (% of control) ([4]; preincubation 25 minutes): 0 % of control
- Platelet Aggregation (% of control) ([4]; preincubation 45 minutes): 0 % of control
